One data set relates to GluN2B subunits. The following applies: cited from earlier work.
Another data set has as its system GluN2B. Set-up: method as in PMID 35710735. The following applies: PET, non-human primates; cited from earlier work.
In a further data set the target is GluN1a wt/ GluN2B F114A (Rattus norvegicus, UniProt P35439+Q00960, F114A). The data set is described as follows: TEVC recording in X. laevis oocytes, GluN2B mutant screening. The settings on record: GluN1-1a/F114A, individual oocytes. The class given is cell-based.
The target in another data set is GluN1a wt/ GluN2B E236A (Rattus norvegicus, UniProt P35439+Q00960, E236A). The data set is described as above. The class given is cell-based. The following applies: GluN1-1a/E236A, individual oocytes.
The target of another data set is GluN1a wt/ GluN2B F176A (Rattus norvegicus, UniProt P35439+Q00960, F176A). As to the kind of experiment: Ligand binding assay with [3H]ifenprodil, membranes of transfected HEK cells. The settings on record: 5 nM radioligand, non-specific binding with 10 µM unlabeled ifenprodil, 37 °C; single replicate. As for the experimental part: (§1) One day prior to transfection, human embryonic kidney (HEK) cells were reseeded into T75 flasks, aiming for a confluency of 70% after 24 h. HEK cells were then transiently co-transfected with the cDNAs (GluN1-1a/ eGFP, GluN1-1b/eGFP, GluN2B/pDsRed2-N1, GluN2B F176A/pDsRed2-N1, and GluN2B F194A/pDsRed2-N1) encoding the NMDAR subunits using Lipofectamine 3000 (Thermo Fisher Scientific, Germany) according to the manufacturer’s instructions. Approximately 60 h after transfection, the cells were resuspended in Dulbecco’s phosphate-buffered saline (PBS), and the positively double transfected cells were sorted using fluorescence-activated cell sorting (FACS). The membrane preparation, the protein yield determination, and ligand binding assay were performed as previously described. Briefly, the affinity for NMDAR was evaluated using a receptor binding assay, in which racemic […] (60 Ci/mmol; BIOTREND, Cologne, Germany), served as radioligand. The membrane fragments of NMDAR expressing HEK cells were incubated with 5 nM [^3H]ifenprodil and TRIS/EDTA-buffer (5 mM TRIS/1 mM EDTA, pH 7.5) at 37 °C. To evaluate the unspecific binding, 10 µM unlabeled ifenprodil was used.

A further data set addresses GluN1a wt/ GluN2B F194A (Rattus norvegicus, UniProt P35439+Q00960, F194A). The description is as above. The settings on record: 5 nM radioligand, non-specific binding with 10 µM unlabeled ifenprodil, 37 °C; single replicate. On the procedure:
as §1

In a further data set the target is GluN1a wt/ GluN2B wt (Rattus norvegicus, UniProt P35439+Q00960). Described as above. The following applies: 5 nM radioligand, non-specific binding with 10 µM unlabeled ifenprodil, 37 °C; single replicate. On the procedure:
as §1

The target of the next data set is GluN1b wt/ GluN2B F176A (Rattus norvegicus, UniProt P35439+Q00960, F176A). The description is as above. The settings on record: 5 nM radioligand, non-specific binding with 10 µM unlabeled ifenprodil, 37 °C; single replicate. On the procedure: as §1
The next data set addresses GluN1b wt/ GluN2B F194A (Rattus norvegicus, UniProt P35439+Q00960, F194A). The data set is described as above. The following applies: 5 nM radioligand, non-specific binding with 10 µM unlabeled ifenprodil, 37 °C; single replicate. On the procedure: as §1
In the next data set the target is GluN1b wt/ GluN2B wt (Rattus norvegicus, UniProt P35439+Q00960). The data set is described as above. The following applies: 5 nM radioligand, non-specific binding with 10 µM unlabeled ifenprodil, 37 °C; single replicate. On the procedure:
as §1

The mark [1] stands for this setting: compound concentration 0.1 μM, 0.1 µM.
Where [2] appears, read: compound concentration 1 μM, 1 µM.
Where [3] appears, read: compound concentration 10 μM, 10 µM.
[4] abbreviates: compound concentration 30 μM, 30 µM.

“And” between values parts separate entries of the source, which are not always exact repeats. Identical values can stand only once.

GluN1b wt/ GluN2B wt, sequence (Q00960 27-1482, other chains not shown): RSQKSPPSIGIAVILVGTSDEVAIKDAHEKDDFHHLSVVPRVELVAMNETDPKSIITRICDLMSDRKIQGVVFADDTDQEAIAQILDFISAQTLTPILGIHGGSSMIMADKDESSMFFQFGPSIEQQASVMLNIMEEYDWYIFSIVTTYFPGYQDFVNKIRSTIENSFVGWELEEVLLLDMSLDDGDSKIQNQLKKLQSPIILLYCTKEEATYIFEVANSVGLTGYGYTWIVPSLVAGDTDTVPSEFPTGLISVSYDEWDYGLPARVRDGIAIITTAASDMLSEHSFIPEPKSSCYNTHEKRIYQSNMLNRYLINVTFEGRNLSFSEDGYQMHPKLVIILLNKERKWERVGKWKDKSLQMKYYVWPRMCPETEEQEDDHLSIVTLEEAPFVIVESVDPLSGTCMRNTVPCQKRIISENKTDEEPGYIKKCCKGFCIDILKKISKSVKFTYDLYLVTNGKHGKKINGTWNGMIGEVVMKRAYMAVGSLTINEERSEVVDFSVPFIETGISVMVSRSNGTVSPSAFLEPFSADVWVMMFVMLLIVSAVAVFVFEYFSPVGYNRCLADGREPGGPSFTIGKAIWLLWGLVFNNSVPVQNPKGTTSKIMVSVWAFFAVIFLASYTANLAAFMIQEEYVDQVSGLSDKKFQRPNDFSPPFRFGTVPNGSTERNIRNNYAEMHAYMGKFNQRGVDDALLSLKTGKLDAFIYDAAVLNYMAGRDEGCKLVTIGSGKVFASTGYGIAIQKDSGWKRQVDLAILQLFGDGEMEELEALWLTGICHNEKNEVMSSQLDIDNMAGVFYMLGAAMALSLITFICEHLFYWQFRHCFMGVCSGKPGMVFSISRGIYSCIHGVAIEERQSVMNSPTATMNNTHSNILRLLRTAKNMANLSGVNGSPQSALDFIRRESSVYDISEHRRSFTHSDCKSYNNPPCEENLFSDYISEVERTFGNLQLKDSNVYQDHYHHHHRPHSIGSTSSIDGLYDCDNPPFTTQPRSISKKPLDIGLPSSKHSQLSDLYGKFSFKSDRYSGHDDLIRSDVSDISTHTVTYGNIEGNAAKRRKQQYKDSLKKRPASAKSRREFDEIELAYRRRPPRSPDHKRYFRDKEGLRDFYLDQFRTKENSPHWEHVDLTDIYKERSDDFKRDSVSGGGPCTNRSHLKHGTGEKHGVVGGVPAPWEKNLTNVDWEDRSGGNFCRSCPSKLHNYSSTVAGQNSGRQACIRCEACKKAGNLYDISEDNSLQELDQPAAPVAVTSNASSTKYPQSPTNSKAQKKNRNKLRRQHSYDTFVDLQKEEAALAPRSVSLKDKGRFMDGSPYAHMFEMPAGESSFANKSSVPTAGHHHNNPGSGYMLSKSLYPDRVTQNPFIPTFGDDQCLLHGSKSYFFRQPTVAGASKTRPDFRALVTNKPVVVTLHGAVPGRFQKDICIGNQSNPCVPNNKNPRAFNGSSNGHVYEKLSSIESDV
GluN1a wt/ GluN2B wt, sequence (Q00960 27-1482, other chains not shown): as above
GluN1b wt/ GluN2B F176A, sequence (Q00960 27-1482 F176A, other chains not shown): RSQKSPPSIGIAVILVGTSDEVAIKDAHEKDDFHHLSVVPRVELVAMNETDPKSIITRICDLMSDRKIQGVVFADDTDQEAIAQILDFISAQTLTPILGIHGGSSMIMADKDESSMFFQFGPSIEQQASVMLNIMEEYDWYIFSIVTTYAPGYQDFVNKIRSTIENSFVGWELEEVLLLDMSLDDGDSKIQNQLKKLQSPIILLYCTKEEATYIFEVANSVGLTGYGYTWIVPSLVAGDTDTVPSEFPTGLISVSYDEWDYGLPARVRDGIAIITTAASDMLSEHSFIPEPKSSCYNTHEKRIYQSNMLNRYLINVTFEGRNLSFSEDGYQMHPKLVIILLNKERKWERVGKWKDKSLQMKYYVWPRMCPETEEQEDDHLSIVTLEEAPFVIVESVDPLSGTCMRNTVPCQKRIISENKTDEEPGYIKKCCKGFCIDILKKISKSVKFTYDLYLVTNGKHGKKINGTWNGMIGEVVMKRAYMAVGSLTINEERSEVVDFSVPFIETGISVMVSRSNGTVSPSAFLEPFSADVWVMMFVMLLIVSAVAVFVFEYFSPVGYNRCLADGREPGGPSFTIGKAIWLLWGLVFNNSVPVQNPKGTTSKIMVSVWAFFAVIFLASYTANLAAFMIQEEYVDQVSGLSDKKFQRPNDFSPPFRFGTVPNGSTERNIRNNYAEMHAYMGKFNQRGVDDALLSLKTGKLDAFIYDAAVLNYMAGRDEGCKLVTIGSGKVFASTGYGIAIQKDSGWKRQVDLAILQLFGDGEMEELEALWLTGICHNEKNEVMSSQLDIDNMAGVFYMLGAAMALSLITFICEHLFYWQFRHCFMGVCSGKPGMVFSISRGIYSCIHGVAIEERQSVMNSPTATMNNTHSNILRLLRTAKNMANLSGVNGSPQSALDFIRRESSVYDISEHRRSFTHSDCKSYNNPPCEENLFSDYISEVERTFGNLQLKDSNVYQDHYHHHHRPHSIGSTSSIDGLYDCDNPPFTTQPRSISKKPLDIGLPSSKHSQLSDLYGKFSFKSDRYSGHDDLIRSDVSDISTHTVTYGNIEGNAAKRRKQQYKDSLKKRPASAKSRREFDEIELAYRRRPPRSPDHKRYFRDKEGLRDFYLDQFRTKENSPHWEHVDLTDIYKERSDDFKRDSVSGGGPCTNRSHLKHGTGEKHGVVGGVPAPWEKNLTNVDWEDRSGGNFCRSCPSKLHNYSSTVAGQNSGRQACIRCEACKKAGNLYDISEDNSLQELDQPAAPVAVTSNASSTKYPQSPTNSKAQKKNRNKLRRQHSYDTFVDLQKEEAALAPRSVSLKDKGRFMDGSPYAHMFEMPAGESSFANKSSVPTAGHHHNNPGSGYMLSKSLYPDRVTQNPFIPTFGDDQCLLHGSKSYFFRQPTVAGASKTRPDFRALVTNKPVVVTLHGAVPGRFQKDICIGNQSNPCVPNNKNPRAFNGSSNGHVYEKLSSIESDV

As to `Oc1ccc2c(c1)CCN(CCCCc1ccccc1[18F])CC2O` (racemic) [^18F-OF-NB1], the “blood–brain barrier permeability” value in the data set on GluN2B subunits is given as “high”. Also, the cerebellar accumulation result in the data set on GluN2B subunits (ex vivo biodistribution assays) is on record as “high cerebellar accumulation”.
As for `Oc1ccc2c(c1)CCN(CCCCc1ccccc1[18F])C[C@@H]2O` [(R)-^18F-OF-NB1], in the data set with GluN2B, the “affinity in vivo relative to the S-enantiomer” value is given as “four- to five-fold higher”, the cingulate cortex accumulation result was “high cingulate cortex accumulation”, the uptake entry is recorded as “high uptake” and the washout kinetics entry is given as “slow washout kinetics”.
In the case of `Oc1ccc2c(c1)CCN(CCCCc1ccccc1F)C[C@@H]2O` [OF-NB1 R], the “inhibition (%)” value on GluN1a wt/ GluN2B F114A (setting [1]) is 0.07918% and 0.5179% and 0.211%; on GluN1a wt/ GluN2B F114A (setting [2]), 29.9386% and 5.971% and 22.998% and 16.9662%; against GluN1a wt/ GluN2B F114A (setting [3]), 58.532% and 61.9095% and 61.1489% and 64.1685%; at GluN1a wt/ GluN2B F114A (setting [4]) it was 87.8657% and 75.6136% and 78.22% and 87.6368%; against GluN1a wt/ GluN2B E236A (compound concentration 0.001 μM, 0.001 µM), 0.5349% and -0.3615% and 0.07864% and -0.02364% and -0.08675%; at GluN1a wt/ GluN2B E236A (compound concentration 0.01 μM, 0.01 µM), 2.174% and 5.182% and 1.1167% and -0.03546% and -0.1952%. Moreover, the “inhibition (%)” value at GluN1a wt/ GluN2B E236A (setting [1]) was 22.83% and 11.3477% and 24.7562% and 0% and 0.08675%; against GluN1a wt/ GluN2B E236A (setting [2]), 62.3641% and 56.7584% and 57.7225% and 68.2307% and 52.0278%; against GluN1a wt/ GluN2B E236A (setting [3]) it was 74.0293% and 68.3069% and 74.5203% and 84.919% and 71.8716%; on GluN1a wt/ GluN2B E236A (setting [4]), 82.623% and 76.0795% and 83.6584% and 89.363% and 81.8261%.
Take `CC(C(O)c1ccc(O)cc1)N1CCC(Cc2ccccc2)CC1` (stereo not shown) [[^3H]ifenprodil, ifenprodil]: the “specific binding (cpm)” value on GluN1a wt/ GluN2B F176A was 4.5 cpm and 6.5 cpm; on GluN1a wt/ GluN2B F194A, 3.5 cpm and 2.5 cpm and -1.5 cpm; on GluN1a wt/ GluN2B wt, 25.5 cpm and 9.5 cpm and 4.5 cpm; on GluN1b wt/ GluN2B F176A it was -1.5 cpm and -2.5 cpm and 0.5 cpm; on GluN1b wt/ GluN2B F194A, -0.5 cpm and -1.5 cpm; on GluN1b wt/ GluN2B wt, 4.5 cpm and 5.5 cpm and 11.5 cpm.

The record behind these values is paper PMC10657792, “Downstream Allosteric Modulation of NMDA Receptors by 3-Benzazepine Derivatives” (Molecular Neurobiology, 2023).
